One assay deals with T1, FGR SH2 domain (Homo sapiens, UniProt P09769).
T1 construct: 93 SH2 and 2 PTB domain-containing constructs; 6X His; thioredoxin; made in house; host or cells: E. coli BL21(DE3)pLysS
The experiment in a line: FP saturation binding assay. The conditions noted are these: Protein FGR, high-confidence ErbB interactions, mean over replicate hits. The essentials: (§1)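 KD values come from least-squares fits of fluorescence polarization (ex 530, em 555 nm), corrected for thioredoxin nonspecific binding and plate baseline, with outliers pruned. Fixed 10 nM labeled peptide met a 0.002–10 µM protein series for 20 min at room temperature in HEPES/KCl/Tween/DTT buffer, pH 7.8.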

For assay [1], the target named is T2, SH2 and PTB domains (Homo sapiens, UniProt Q8WV28).
T2 construct: thioredoxin; made in house; host or cells: BL21(DE3)pLysS E. coli
The experiment in a line: In-house protein microarrays (with or without 5 mM DTT), protein named per line. It counts as binding. The conditions noted are these: protein BLNK; PM assay replicate # 39307; array fabrication # 39286. The method, boiled down: (§2)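 KD values come from rhodamine fluorescence of duplicate spots after subtraction of a thioredoxin control. Domains were printed at ~40 µM on aldehyde slides, blocked 1 h at room temperature in pH 7.8 HEPES/KCl buffer with 5 mM DTT and 1% BSA, then peptide-probed.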

Assay [2] has as its target T3, SH2 and PTB domains (Homo sapiens, UniProt Q63HR2).
T3 construct: thioredoxin; made in house; host or cells: BL21(DE3)pLysS E. coli
The assay is described as above. As to conditions: protein TENC1, array fabrication # 39329. The class given is binding. The method, boiled down:
as §2

Assay [3] concerns the target T4, SH2 and PTB domains (Homo sapiens, UniProt O75159).
T4 construct: thioredoxin; made in house; host or cells: BL21(DE3)pLysS E. coli
The description is as above. The class given is binding. The conditions noted are these: protein SOCS5; PM assay replicate # 39337; array fabrication # 39329. The essentials: as §2

Assay [4] addresses T5, SH2 and PTB domains (Homo sapiens, UniProt Q06124).
T5 construct: thioredoxin; made in house; host or cells: BL21(DE3)pLysS E. coli
The assay is described as above. The class given is binding. As to conditions: protein PTPN11-NC, array fabrication # 39329. The essentials:
as §2

The target in the next assay is T6, HCK SH2 domain (Homo sapiens, UniProt P08631).
T6 construct: 93 SH2 and 2 PTB domain-containing constructs; 6X His; thioredoxin; made in house; host or cells: E. coli BL21(DE3)pLysS
The experiment in a line: FP saturation binding assay. The conditions noted are these: protein HCK, high-confidence ErbB interactions, mean of replicate hits. The essentials:
as §1

In the next assay the target is T7, ABL2 SH2 domain (Homo sapiens, UniProt P42684).
T7 construct: 93 SH2 and 2 PTB domain-containing constructs; 6X His; thioredoxin; made in house; host or cells: E. coli BL21(DE3)pLysS
As to the kind of experiment: FP saturation binding assay. As to conditions: protein ABL2, high-confidence ErbB interactions, mean of replicate hits. The method, boiled down: as §1

Data on five compounds can be found in paper PMC3433420 (PLoS ONE, 2012).

Residues, ends and D or L forms follow the SMILES beside them.

T3 sequence (Q63HR2 whole entry, the tested form may be a part): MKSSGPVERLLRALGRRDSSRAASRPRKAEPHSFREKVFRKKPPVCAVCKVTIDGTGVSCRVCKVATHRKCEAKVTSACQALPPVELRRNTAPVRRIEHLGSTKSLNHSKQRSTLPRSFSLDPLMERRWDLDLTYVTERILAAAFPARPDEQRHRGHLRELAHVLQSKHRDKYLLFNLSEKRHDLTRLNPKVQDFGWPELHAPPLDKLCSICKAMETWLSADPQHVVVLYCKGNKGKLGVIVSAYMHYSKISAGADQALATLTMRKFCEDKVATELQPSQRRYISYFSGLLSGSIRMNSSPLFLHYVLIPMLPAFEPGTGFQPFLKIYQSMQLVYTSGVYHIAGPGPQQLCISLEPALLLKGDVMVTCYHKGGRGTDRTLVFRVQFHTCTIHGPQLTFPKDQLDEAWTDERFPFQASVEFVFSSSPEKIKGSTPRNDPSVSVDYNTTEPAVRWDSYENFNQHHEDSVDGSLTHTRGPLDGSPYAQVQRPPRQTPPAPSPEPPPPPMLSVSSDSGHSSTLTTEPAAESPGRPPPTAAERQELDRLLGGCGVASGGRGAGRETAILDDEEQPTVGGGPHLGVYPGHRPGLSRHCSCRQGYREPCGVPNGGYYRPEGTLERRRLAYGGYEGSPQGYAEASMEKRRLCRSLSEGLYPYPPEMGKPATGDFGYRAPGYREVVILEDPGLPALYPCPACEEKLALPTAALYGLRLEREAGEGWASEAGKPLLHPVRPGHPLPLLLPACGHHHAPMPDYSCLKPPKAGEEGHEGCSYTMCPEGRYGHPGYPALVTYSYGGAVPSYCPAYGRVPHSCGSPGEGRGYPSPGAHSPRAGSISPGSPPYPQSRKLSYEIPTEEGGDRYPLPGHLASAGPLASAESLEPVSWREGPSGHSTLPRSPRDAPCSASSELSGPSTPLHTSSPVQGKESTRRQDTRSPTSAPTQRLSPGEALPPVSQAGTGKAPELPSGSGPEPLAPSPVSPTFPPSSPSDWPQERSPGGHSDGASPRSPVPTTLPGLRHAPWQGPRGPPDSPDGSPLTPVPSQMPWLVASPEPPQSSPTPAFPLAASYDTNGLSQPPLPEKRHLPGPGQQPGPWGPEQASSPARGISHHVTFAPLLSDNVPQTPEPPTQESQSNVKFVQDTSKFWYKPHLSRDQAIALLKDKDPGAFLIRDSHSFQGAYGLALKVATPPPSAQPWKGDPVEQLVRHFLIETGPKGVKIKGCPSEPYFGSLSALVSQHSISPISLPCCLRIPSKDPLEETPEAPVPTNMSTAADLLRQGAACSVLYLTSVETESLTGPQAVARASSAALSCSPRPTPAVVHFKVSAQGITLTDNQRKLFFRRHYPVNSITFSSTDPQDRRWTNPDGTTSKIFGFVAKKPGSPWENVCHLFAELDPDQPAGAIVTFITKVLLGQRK
T5 sequence (Q06124 whole entry, the tested form may be a part): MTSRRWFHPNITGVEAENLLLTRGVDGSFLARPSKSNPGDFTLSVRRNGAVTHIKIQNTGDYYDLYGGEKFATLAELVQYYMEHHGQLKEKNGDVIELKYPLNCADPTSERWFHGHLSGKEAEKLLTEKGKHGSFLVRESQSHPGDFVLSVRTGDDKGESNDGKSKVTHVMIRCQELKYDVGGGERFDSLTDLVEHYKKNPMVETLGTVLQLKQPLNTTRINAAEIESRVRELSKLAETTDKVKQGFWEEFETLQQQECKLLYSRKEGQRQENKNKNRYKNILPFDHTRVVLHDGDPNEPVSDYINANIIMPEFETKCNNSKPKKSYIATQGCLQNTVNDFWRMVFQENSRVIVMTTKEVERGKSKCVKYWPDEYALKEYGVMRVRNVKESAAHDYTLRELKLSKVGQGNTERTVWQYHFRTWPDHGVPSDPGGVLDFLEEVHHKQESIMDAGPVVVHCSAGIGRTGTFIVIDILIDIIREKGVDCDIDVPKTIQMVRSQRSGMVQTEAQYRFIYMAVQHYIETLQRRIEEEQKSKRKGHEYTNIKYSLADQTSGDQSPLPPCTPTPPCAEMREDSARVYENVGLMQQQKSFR
T6 sequence (P08631 144-241 limits assumed): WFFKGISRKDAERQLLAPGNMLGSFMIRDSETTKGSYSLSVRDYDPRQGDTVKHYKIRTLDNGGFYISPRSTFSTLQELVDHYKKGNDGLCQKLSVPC
T7 sequence (P42684 173-263 limits assumed): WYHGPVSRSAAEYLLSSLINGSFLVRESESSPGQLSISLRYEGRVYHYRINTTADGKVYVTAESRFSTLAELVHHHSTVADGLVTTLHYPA
T1 sequence (P09769 144-241 limits assumed): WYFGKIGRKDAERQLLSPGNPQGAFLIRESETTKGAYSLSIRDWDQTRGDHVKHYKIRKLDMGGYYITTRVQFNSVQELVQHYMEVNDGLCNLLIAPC
T4 sequence (O75159 whole entry, the tested form may be a part): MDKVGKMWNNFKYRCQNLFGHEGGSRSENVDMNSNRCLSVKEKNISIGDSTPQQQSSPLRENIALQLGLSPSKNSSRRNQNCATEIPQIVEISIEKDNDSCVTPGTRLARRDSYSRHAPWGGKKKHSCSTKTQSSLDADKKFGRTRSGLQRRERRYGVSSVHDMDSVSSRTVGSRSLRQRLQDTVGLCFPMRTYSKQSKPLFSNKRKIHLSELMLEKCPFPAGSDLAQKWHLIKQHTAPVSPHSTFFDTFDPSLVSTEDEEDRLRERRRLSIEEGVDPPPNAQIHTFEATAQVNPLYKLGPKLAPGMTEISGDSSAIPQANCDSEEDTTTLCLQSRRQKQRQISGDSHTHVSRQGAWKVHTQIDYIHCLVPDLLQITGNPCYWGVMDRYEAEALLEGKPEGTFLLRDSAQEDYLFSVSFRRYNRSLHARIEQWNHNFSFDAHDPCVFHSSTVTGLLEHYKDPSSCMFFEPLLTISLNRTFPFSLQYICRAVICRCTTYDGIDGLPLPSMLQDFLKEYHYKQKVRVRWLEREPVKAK
T2 sequence (Q8WV28 whole entry, the tested form may be a part): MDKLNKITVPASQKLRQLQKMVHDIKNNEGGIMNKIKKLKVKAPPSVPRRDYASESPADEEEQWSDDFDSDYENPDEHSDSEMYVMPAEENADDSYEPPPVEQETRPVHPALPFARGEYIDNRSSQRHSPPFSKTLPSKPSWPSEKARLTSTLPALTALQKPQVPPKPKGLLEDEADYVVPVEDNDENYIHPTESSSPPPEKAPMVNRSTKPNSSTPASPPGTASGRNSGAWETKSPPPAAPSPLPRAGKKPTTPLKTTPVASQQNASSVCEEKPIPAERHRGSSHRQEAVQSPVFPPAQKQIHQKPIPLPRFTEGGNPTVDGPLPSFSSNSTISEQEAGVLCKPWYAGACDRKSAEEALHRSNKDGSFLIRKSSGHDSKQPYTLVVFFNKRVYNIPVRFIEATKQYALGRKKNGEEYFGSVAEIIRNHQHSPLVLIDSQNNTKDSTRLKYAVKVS

As usually defined, the Kd is the constant that tells how readily two partners part at equilibrium. Read a low Kd as higher affinity. Take `CC(C)C[C@H](NC(=O)[C@H](CC(N)=O)NC(=O)[C@@H](N)CC(=O)O)C(=O)N[C@@H](Cc1ccc(O)cc1)C(=O)N[C@@H](Cc1ccc(OP(=O)(O)O)cc1)C(=O)N[C@@H](Cc1c[nH]c2ccccc12)C(=O)N[C@@H](CC(=O)O)C(=O)N[C@@H](CCC(N)=O)C(=O)N[C@@H](CC(=O)O)C(=O)N1CCC[C@H]1C(=O)N1CCC[C@H]1C(=O)N[C@@H](CCC(=O)O)C(=O)N[C@@H](CC(=O)O)C(=O)O` [ErbB2 1222 13-mer] (HELM PEPTIDE1{D.N.L.Y.[O=C([C@H](Cc1ccc(OP(=O)(O)O)cc1)N[*:1])[*:2]].W.D.Q.D.P.P.E.D}$$$$V2.0): on FGR SH2 domain, the Kd came out at 8.34 µM. With `CC[C@H](C)[C@H](NC(=O)[C@H](CC(N)=O)NC(=O)[C@H](CC(N)=O)NC(=O)[C@H](CCCCN)NC(=O)[C@H](CC(C)C)NC(=O)[C@H](Cc1ccc(OP(=O)(O)O)cc1)NC(=O)[C@H](CCC(=O)O)NC(=O)[C@H](C)NC(=O)[C@H](CCCCN)NC(=O)CNC(=O)[C@H](CC(C)C)NC(=O)[C@@H](NC(=O)[C@H](CC(N)=O)NC(=O)[C@H](C)NC(=O)[C@@H](N)Cc1ccccc1)[C@@H](C)O)C(=O)N[C@@H](CC(C)C)C(=O)N[C@@H](CO)C(=O)N[C@@H](CC(=O)O)C(=O)O` [ErbB4 pY1221 (18-mer)] (HELM PEPTIDE1{F.A.N.T.L.G.K.A.E.[O=C([C@H](Cc1ccc(OP(=O)(O)O)cc1)N[*:1])[*:2]].L.K.N.N.I.L.S.D}$$$$V2.0), at SH2 and PTB domains [1], the “Kd” value was determined as 4.00 µM. In the case of `CC(C)C[C@H](NC(=O)[C@@H]1CCCN1C(=O)[C@H](C)NC(=O)[C@@H](NC(=O)[C@H](Cc1ccc(OP(=O)(O)O)cc1)NC(=O)CNC(=O)[C@H](CC(=O)O)NC(=O)[C@@H](NC(=O)[C@@H](N)CCC(=O)O)[C@@H](C)O)C(C)C)C(=O)N[C@H](C(=O)N[C@@H](CS)C(=O)N[C@@H](CO)C(=O)N[C@@H](CC(=O)O)C(=O)O)[C@@H](C)O` [ErbB2 pY1127], the “Kd” value at SH2 and PTB domains [2] (PM assay replicate # 39336) is 32.59 µM; at SH2 and PTB domains [2] (PM assay replicate # 39337) it was 3.94 µM; at SH2 and PTB domains [3], 0.70 µM; at SH2 and PTB domains [4] (PM assay replicate # 39336) it was 1.53 µM; on SH2 and PTB domains [4] (PM assay replicate # 39337), 1.15 µM. Consider `CSCC[C@H](NC(=O)[C@H](Cc1ccc(OP(=O)(O)O)cc1)NC(=O)[C@H](CCC(=O)O)NC(=O)[C@H](Cc1ccc(O)cc1)NC(=O)CNC(=O)[C@@H](N)CC(C)C)C(=O)N[C@@H](CC(=O)O)C(=O)N[C@H](C(=O)NCC(=O)N[C@@H](CO)C(=O)N[C@@H](CC(=O)O)C(=O)N[C@@H](CC(C)C)C(=O)N[C@@H](CC(=O)O)C(=O)O)C(C)C` [ErbB3 1224 13-mer] (HELM PEPTIDE1{L.G.Y.E.[O=C([C@H](Cc1ccc(OP(=O)(O)O)cc1)N[*:1])[*:2]].M.D.V.G.S.D.L.D}$$$$V2.0), for which, on HCK SH2 domain, the dissociation constant Kd stood at 10.9 µM. On ABL2 SH2 domain, `CSCC[C@H](NC(=O)[C@H](Cc1ccc(OP(=O)(O)O)cc1)NC(=O)CNC(=O)[C@H](CCC(=O)O)NC(=O)[C@H](CCC(=O)O)NC(=O)[C@H](CC(=O)O)NC(=O)[C@H](CC(C)C)NC(=O)[C@H](CCC(=O)O)NC(=O)CNC(=O)[C@H](CCCNC(=N)N)NC(=O)[C@@H]1CCCN1)C(=O)N[C@H](C(=O)N1CCC[C@H]1C(=O)N[C@@H](CCSC)C(=O)N[C@@H](CCCNC(=N)N)C(=O)N[C@@H](CC(=O)O)C(=O)N[C@@H](CCCCN)C(=O)N[C@@H](CC(=O)O)C(=O)O)[C@@H](C)O` [ErbB4 1150 18-mer] (HELM PEPTIDE1{P.R.G.E.L.D.E.E.G.[O=C([C@H](Cc1ccc(OP(=O)(O)O)cc1)N[*:1])[*:2]].M.T.P.M.R.D.K.D}$$$$V2.0) came in with a Kd of 8.25 µM.
